The text below walks through data of patent publication US7956086B2, “Methods for the formulation and manufacture of artesunic acid for injection” (priority 2006, dated 2011).

Series [1] is described as follows: Storage stability of bulk artesunic acid. It is filed as physicochemical. Particulars: 20 months at 25° C. The protocol: Six thousand dry-filled vials of formulated artesunate for clinical use have been packaged. One thousand of the vials have been reserved for long-term stability testing under various conditions, including elevated temperatures and humidities, to test the integrity and durability of the packaging system. As packaged for clinical use, 20 ml vials have been dry-filled with 110 mg of ethylene oxide sterilized artesunate, stoppered, and sealed.
The sterilized bulk drug of the invention has been tested and is still undergoing stability studies. […] The stability studies are still ongoing.

For series [2] the following is noted: in vivo.
Excerpt: Patients were given a single dose of 1-4 milligrams per kilogram body weight in the form of an injection through an IV catheter (a tube with a needle attached) once a day for 3 days in a row.
The conditions of series [3]: stored under nitrogen @ 25° C., studies at Knoll; cited from earlier work.

For `C[C@H]1[C@H](OC(=O)CCC(=O)O)O[C@@H]2O[C@@]3(C)CC[C@H]4[C@H](C)CC[C@@H]1[C@@]24OO3` (relative stereo) [artesunic acid, butanedioic Acid, [3R-(3α,5a,6,8a,9α,10α,12,12a R*)]-mono(decahydro-3,6,9-trimethyl-3,12-epoxy-12H-pyrano[4,3-j]-1,2-benzodioxepin-10-yl)ester], the “degradation of sterilized bulk drug on storage” value in series [1] was “no evidence of degradation”. In addition, the adverse effects entry in series [2] is listed as “no adverse effects”. Also, in series [3], the “stability of bulk artesunic acid” value is reported as “at least two years stability”.
